What all share (type): in vivo
Experiment [1] in a line: Bitter reduction of a caffeine solution, rated by a group of experts. The source says:
In order to quantify the decrease (i.e. the masking or reduction) in bitter impression in a specimen, the bitterness of a 500 ppm caffeinated solution was compared by a group of experts in each case with a specimen containing 500 ppm caffeine and also various concentrations of deoxy hesperetin dihydrochalcone (I) (rating: 1 [not bitter] to 10 [extremely bitter]).
For the assessment, i.e. calculation of the reduction (in %) of the bitter impression in each case the average values of the assessments of the group of experts for the caffeinated solution and the specimen to be compared containing caffeine and a substance to be assessed were used. 2,4-dihydroxybenzoic acid (2,4-DHB) was used here for comparison (reference) in accordance with U.S. Pat. No. 5,643,941.

Experiment [2] in a line: Intensification of the sweet impression of a sugar solution, rated by a group of experts. More on the design: key to Sweet impression (1-10) Specimen (Sucrose + (I)) / Sweet impression (1-10) Specimen (sucrose + substance): 1 = not sweet, 10 = extremely sweet. The source says: In order to quantify the intensification of the sweet impression, in each case the sweetness of a 5% sucrose solution was compared by a group of experts with a specimen containing 5% sucrose and 10 ppm, 25 ppm, 50 ppm or 75 ppm of the deoxy hesperetin dihydrochalcone (I) to be used according to the invention (rating: 1 [not sweet] to 10 [extremely sweet]).
For the assessment, i.e. calculation of the intensification (in %) of the sweet impression in each case the average values of the assessments of the group of experts for the sucrose solution and the specimen for comparison containing sucrose and deoxy hesperetin dihydrochalcone (I) were used.
In order to quantify the intensification of the sweetness impression, in each case the sweetness of a 5% sucrose solution was compared by a group of experts with a specimen containing 5% sucrose and 30 ppm or 50 ppm of a deoxy dihydrochalcone ((rating: 1 [not sweet] to 10 [extremely sweet])).
For the assessment, i.e. calculation of the intensification (in %) of the sweet impression in each case the average values of the assessments of the group of experts for the sucrose solution and the specimen containing sucrose and deoxy dihydrochalcone for comparison were used.

The nature of experiment [3]: Bitter reduction of a salicin solution, rated by a group of experts. As to conditions: 250 ppm salicin + 50 ppm (I). The source says:
(§1) In order to quantify the decrease (i.e. the masking or reduction) in the bitter impression in a specimen, the bitterness of a solution containing either 100 ppm naringin or 250 ppm salicin or 500 ppm epigallocatechin gallate and 75 ppm ascorbic acid was compared by a group of experts in each case with a specimen containing either 100 ppm naringin or 250 ppm salicin or 500 ppm epigallocatechin gallate and 75 ppm ascorbic acid and additionally 50 ppm deoxy hesperetin dihydrochalcone (I) (rating: 1 [not bitter] to 10 [extremely bitter]).
(§2) For the assessment, i.e. calculation of the reduction (in %) of the bitter impression in each case the average values of the assessments of the group of experts for the respective bitter substance solution and the bitter substance solution also containing 50 ppm deoxy hesperetin dihydrochalcone (I) were used.

Experiment [4] is described as follows: Bitter reduction of an epigallocatechin gallate solution, rated by a group of experts. As to conditions: 500 ppm epigallocatechin gallate + 75 ppm ascorbic acid + 50 ppm (I).
From the text: as §1, §2

Experiment [5] in a line: Bitter reduction of a naringin solution, rated by a group of experts. As to conditions: 100 ppm naringin + 50 ppm (I).
From the text: as §1, §2

Experiment [6] in a line: Sucrose equivalence in a 5% sucrose solution with (I), panelists. As to conditions: 0.0100 % by weight (I); purely additive expected value.
Assay in experiment [7]: as above
As to conditions: for Sucrose equivalence in a 5% sucrose solution with (I), Calculation (5 + x) %: purely additive expected value; for synergy or synergistic additional effect: determined vs theoretically expected value. The source says:
(§3) The panelists were asked to test each solution of the compound (I) in water against the sucrose series and to rate it according is degree of sweetness (sucrose equivalence). From the results produced by the panelists it was possible to determine the inherent sweetness of the deoxy hesperetin dihydrochalcone (I) for the above-mentioned concentrations. Apart from the sucrose equivalence of the solutions of the compound (I) in water (i.e. without sucrose) the sucrose equivalence in a 5% sucrose solution was also determined with a corresponding quantity of compound (I).
In all the cases tested a synergistic intensification in sweetness was found when an in itself not sweet concentration of deoxy hesperetin dihydrochalcone (I) was added. So it could in theory be expected that a 5% sucrose solution (i.e. a sucrose solution which sensorially by definition corresponds to 5% sucrose equivalents), containing 10 ppm, 25 ppm, 50 ppm or 75 ppm deoxy hesperetin dihydrochalcone (I), through a purely additive effect of the inherent sweetness of deoxy hesperetin dihydrochalcone (I) (see the sucrose equivalence determined in water) results in a sweetness of approximately 5.13%, 5.33%, 5.58% and again 5.58% sucrose equivalents. […] This corresponds in view of the purely theoretically expected values to a synergy or a synergistic additional effect of approximately 25%, 29%, 47% or 27%. It is noticeable that at the maximum tested concentration of 75 ppm—as might be expected—neither the maximum absolute nor the maximum synergistic intensification was measured.

The nature of experiment [8]: Inherent sweetness in water against a sucrose concentration series (sucrose equivalence), panelists.
From the text: as §3

[9] abbreviates: 100 ppm substance + 500 ppm caffeine vs caffeinated solution.
The mark [10] stands for this setting: 100 ppm substance + 500 ppm caffeine, rating 1 [not bitter] to 10 [extremely bitter].
The mark [11] stands for this setting: Application example 4: 50 ppm deoxy dihydrochalcone + 5% sucrose vs sucrose solution.
The mark [12] stands for this setting: Application example 4: 50 ppm deoxy dihydrochalcone + 5% sucrose, rating 1-10.

Here are results for five compounds from patent publication US8992892B2, “Use of 1-(2,4-dihydroxy-phenyl)-3-(3-hydroxy-4-methoxy-phenyl)-propan-1-one” (SYMRISE AG, priority 2010, dated 2015).

SMILES strings stand for the structures.

As for `O=C(O)c1ccc(O)cc1O` [2,4-DHB, 2,4-dihydroxybenzoic acid, reference compound], the “Reduction in bitter impression” value in experiment [1] (setting [9]) turned out to be 3%. Also, the “Bitter impression (1-10) Specimen (Caffeine + substance)” value in experiment [1] (setting [10]) is 5.0 ± 1.0.

For the compound `COc1cc(CCC(=O)c2ccc(O)cc2O)ccc1O` [2′,4,4′-trihydroxy-3-methoxy dihydrochalcone, reference compound], the “Intensification of the sweet effect” value in experiment [2] (setting [11]) was 8%. Moreover, the “Sweet impression (1-10) Specimen (sucrose + substance)” value in experiment [2] (setting [12]) was 5.6 ± 1.4.

As for `O=C(CCc1ccc(O)cc1)c1ccc(O)cc1O` [davidigenin (1), davidigenin, reference compound], the “Intensification of the sweet effect” value in experiment [2] (Application example 4: 30 ppm deoxy dihydrochalcone + 5% sucrose vs sucrose solution) worked out at 2%. The “Sweet impression (1-10) Specimen (sucrose + substance)” value in experiment [2] (Application example 4: 30 ppm deoxy dihydrochalcone + 5% sucrose, rating 1-10) amounted to 5.7 ± 1.4.

Regarding `COc1ccc(CCC(=O)c2ccc(O)cc2O)cc1O` [deoxy hesperetin dihydrochalcone (I), 1-(2,4-dihydroxy-phenyl)-3-(3-hydroxy-4-methoxy-phenyl)-propan-1-one], the “Reduction in bitter impression” value in experiment [3] is 15%; in experiment [1] (10 ppm substance + 500 ppm caffeine vs caffeinated solution), 2%; in experiment [1] (25 ppm substance + 500 ppm caffeine vs caffeinated solution), 26%; in experiment [1] (50 ppm substance + 500 ppm caffeine vs caffeinated solution) it was 11%; in experiment [1] (setting [9]) it was 3%; in experiment [4] it was 10%. In experiment [5], the “Reduction in bitter impression” value was found to be 7%. The figures for the “Bitter impression (1-10) Bitter substance + (I)” value in experiment [3] (rating 1-10), in experiment [4] (rating 1-10) and in experiment [5] (rating 1-10) were 6.5 ± 2.2, 6.1 ± 2.9 and 6.4 ± 2.4, respectively. Also, the “Bitter impression (1-10) Specimen (Caffeine + substance)” value in experiment [1] (10 ppm substance + 500 ppm caffeine, rating 1-10) amounted to 4.8 ± 1.6; in experiment [1] (25 ppm substance + 500 ppm caffeine, rating 1-10), 3.8 ± 1.5; in experiment [1] (50 ppm substance + 500 ppm caffeine, rating 1-10) it was 3.7 ± 1.6; in experiment [1] (setting [10]), 4.9 ± 1.9. For the same compound, the “Intensification of the sweet impression” value in experiment [2] (10 ppm (I) + 5% sucrose vs sucrose solution) was 21%; in experiment [2] (25 ppm (I) + 5% sucrose vs sucrose solution), 42%; in experiment [2] (50 ppm (I) + 5% sucrose vs sucrose solution) it was 48%; in experiment [2] (75 ppm (I) + 5% sucrose vs sucrose solution), 21%. Besides, the “Sweet impression (1-10) Specimen (Sucrose + (I))” value turned out to be 6.4 ± 1.6 in experiment [2] (10 ppm (I) + 5% sucrose, rating 1 [not sweet] to 10 [extremely sweet]); 6.9 ± 1.9 in experiment [2] (25 ppm (I) + 5% sucrose, rating 1-10); 8.2 ± 0.9 in experiment [2] (50 ppm (I) + 5% sucrose, rating 1-10); 7.1 ± 1.7 in experiment [2] (75 ppm (I) + 5% sucrose, rating 1-10). Also, in experiment [2] (setting [11]), the “Intensification of the sweet effect” value is listed as 48%. Also, the “Sweet impression (1-10) Specimen (sucrose + substance)” value in experiment [2] (setting [12]) is 8.2 ± 0.9. Moreover, in experiment [2] (own investigations), the sweetness-intensifying effect entry is “strong, sweetness-intensifying effect”. For the same compound, the “sweetness intensifying effect compared with structurally related substances (1)-(3)” value in experiment [2] (see Application example 4) is “clearly the most powerful compound”. Also, the “Sucrose equivalence in a 5% sucrose solution with (I), Calculation (5 + x) %” value in experiment [6] is listed as 5.79%; in experiment [7] (0.0025 % by weight (25 ppm) (I)) it was 5.33%; in experiment [7] (0.0050 % by weight (50 ppm) (I)), 5.58%; in experiment [7] (0.0075 % by weight (75 ppm) (I)), 5.58%. Moreover, the “Sucrose equivalence in a 5% sucrose solution with (I), Determination” value in experiment [7] (0.0010 % by weight (10 ppm) (I) in 5% sucrose) was found to be 6.4%; in experiment [7] (0.0025 % by weight (25 ppm) (I) in 5% sucrose), 6.9%; in experiment [7] (0.0050 % by weight (50 ppm) (I) in 5% sucrose), 8.2%; in experiment [7] (0.0075 % by weight (75 ppm) (I) in 5% sucrose), 7.1%. In addition, the “synergy or synergistic additional effect” value in experiment [7] (10 ppm (I) in 5% sucrose) is “approximately 25%”; in experiment [7] (25 ppm (I) in 5% sucrose) it was around 29%; in experiment [7] (50 ppm (I) in 5% sucrose), around 47%; in experiment [7] (75 ppm (I) in 5% sucrose) it was around 27%. The “Determination of the sucrose equivalence in water (without sucrose)” value is given as 0.13% in experiment [8] (0.0010 % by weight (I) in water); 0.33% in experiment [8] (0.0025 % by weight (I) in water); 0.58% in experiment [8] (0.0050 % by weight (I) in water); 0.58% in experiment [8] (0.0075 % by weight (I) in water); 0.79% in experiment [8] (0.0100 % by weight (I) in water). For the same compound, in experiment [8] (own investigations), the “own sweetness of the compound” value was “not in itself particularly sweet”.

Take `COc1ccc(CCC(=O)c2ccc(O)cc2O)cc1` [reference compound]: the “Intensification of the sweet effect” value in experiment [2] (setting [11]) was 12%. The “Sweet impression (1-10) Specimen (sucrose + substance)” value in experiment [2] (setting [12]) stood at 6.1 ± 1.8.
